Laboratory results published in the NIST ThermoML archive (doi:10.1021/je060271a).
± gives the expanded uncertainty stated by the source.

Conditions: 303.15 K, Liquid, Vibrating tube method

SMILES: CCCCC(=O)OCC(COC(=O)CCCC)(COC(=O)CCCC)COC(=O)CCCC [pentaerythritol tetrapentanoate]
- mass density (2232.7 kPa): 1012.2 ± 1.2 kg/m3
- mass density (2240.1 kPa): 1012.3 ± 1.2 kg/m3
- mass density (2247.8 kPa): 1012.4 ± 1.2 kg/m3
- mass density (2256.6 kPa): 1012.3 ± 1.2 kg/m3
- mass density (2264.4 kPa): 1012.4 ± 1.2 kg/m3
- mass density (2272.4 kPa): 1012.3 ± 1.2 kg/m3
- mass density (2281.6 kPa): 1012.4 ± 1.2 kg/m3
- mass density (2289.2 kPa): 1012.3 ± 1.2 kg/m3
- mass density (2297.4 kPa): 1012.3 ± 1.2 kg/m3
- mass density (2305.2 kPa): 1012.3 ± 1.2 kg/m3
- mass density (2314.7 kPa): 1012.3 ± 1.2 kg/m3
- mass density (2322.9 kPa): 1012.2 ± 1.2 kg/m3
- mass density (2330.3 kPa): 1012.3 ± 1.2 kg/m3
- mass density (2339.9 kPa): 1012.4 ± 1.2 kg/m3
- mass density (2348.2 kPa): 1012.5 ± 1.2 kg/m3
- mass density (2356.9 kPa): 1012.5 ± 1.2 kg/m3
- mass density (2365.6 kPa): 1012.3 ± 1.2 kg/m3
- mass density (2373.5 kPa): 1012.5 ± 1.2 kg/m3
- mass density (2383.8 kPa): 1012.3 ± 1.2 kg/m3
- mass density (2391.9 kPa): 1012.4 ± 1.2 kg/m3
- mass density (2402.3 kPa): 1012.4 ± 1.2 kg/m3
- mass density (2411 kPa): 1012.3 ± 1.2 kg/m3
- mass density (2419.3 kPa): 1012.5 ± 1.2 kg/m3
- mass density (2429.4 kPa): 1012.4 ± 1.2 kg/m3
- mass density (2438.1 kPa): 1012.4 ± 1.2 kg/m3
- mass density (2446.9 kPa): 1012.4 ± 1.2 kg/m3
- mass density (2455.6 kPa): 1012.5 ± 1.2 kg/m3
- mass density (2464.8 kPa): 1012.4 ± 1.2 kg/m3
- mass density (2475.4 kPa): 1012.4 ± 1.2 kg/m3
- mass density (2484.4 kPa): 1012.5 ± 1.2 kg/m3
- mass density (2493.4 kPa): 1012.4 ± 1.2 kg/m3
- mass density (2504.2 kPa): 1012.4 ± 1.2 kg/m3
- mass density (2513.4 kPa): 1012.4 ± 1.2 kg/m3
- mass density (2522.4 kPa): 1012.5 ± 1.2 kg/m3
- mass density (2531.8 kPa): 1012.5 ± 1.2 kg/m3
- mass density (2543 kPa): 1012.6 ± 1.2 kg/m3
- mass density (2552.4 kPa): 1012.5 ± 1.2 kg/m3
- mass density (2561.7 kPa): 1012.5 ± 1.2 kg/m3
- mass density (2573.2 kPa): 1012.4 ± 1.2 kg/m3
- mass density (2582.7 kPa): 1012.6 ± 1.2 kg/m3
- mass density (2592.3 kPa): 1012.5 ± 1.2 kg/m3
- mass density (2601.8 kPa): 1012.5 ± 1.2 kg/m3
- mass density (2613.6 kPa): 1012.6 ± 1.2 kg/m3
- mass density (2623.2 kPa): 1012.5 ± 1.2 kg/m3
- mass density (2632.7 kPa): 1012.5 ± 1.2 kg/m3
- mass density (2642.9 kPa): 1012.6 ± 1.2 kg/m3
- mass density (2654.9 kPa): 1012.6 ± 1.2 kg/m3
- mass density (2664.6 kPa): 1012.5 ± 1.2 kg/m3
- mass density (2676.8 kPa): 1012.5 ± 1.2 kg/m3
- mass density (2686.8 kPa): 1012.6 ± 1.2 kg/m3
- mass density (2697.2 kPa): 1012.6 ± 1.2 kg/m3
- mass density (2707.4 kPa): 1012.6 ± 1.2 kg/m3
- mass density (2719.9 kPa): 1012.6 ± 1.2 kg/m3
- mass density (2730.3 kPa): 1012.6 ± 1.2 kg/m3
- mass density (2740.9 kPa): 1012.6 ± 1.2 kg/m3
- mass density (2751.7 kPa): 1012.5 ± 1.2 kg/m3
- mass density (2764.8 kPa): 1012.6 ± 1.2 kg/m3
- mass density (2775.1 kPa): 1012.6 ± 1.2 kg/m3
- mass density (2785.8 kPa): 1012.7 ± 1.2 kg/m3
- mass density (2799.2 kPa): 1012.6 ± 1.2 kg/m3
- mass density (2810.1 kPa): 1012.7 ± 1.2 kg/m3
- mass density (2820.9 kPa): 1012.7 ± 1.2 kg/m3
- mass density (2833.5 kPa): 1012.7 ± 1.2 kg/m3
- mass density (2844.6 kPa): 1012.7 ± 1.2 kg/m3
- mass density (2855.9 kPa): 1012.6 ± 1.2 kg/m3
- mass density (2869.2 kPa): 1012.7 ± 1.2 kg/m3
- mass density (2880.7 kPa): 1012.7 ± 1.2 kg/m3
- mass density (2892.5 kPa): 1012.8 ± 1.2 kg/m3
- mass density (2904.8 kPa): 1012.8 ± 1.2 kg/m3
- mass density (2916.2 kPa): 1012.6 ± 1.2 kg/m3
- mass density (2930.1 kPa): 1012.7 ± 1.2 kg/m3
- mass density (2941.7 kPa): 1012.8 ± 1.2 kg/m3
- mass density (2953.3 kPa): 1012.8 ± 1.2 kg/m3
- mass density (2967.4 kPa): 1012.8 ± 1.2 kg/m3
- mass density (2979.5 kPa): 1012.7 ± 1.2 kg/m3
- mass density (2991.5 kPa): 1012.8 ± 1.2 kg/m3
- mass density (3006.1 kPa): 1012.7 ± 1.2 kg/m3
- mass density (3018.4 kPa): 1012.8 ± 1.2 kg/m3
- mass density (3030.5 kPa): 1012.7 ± 1.2 kg/m3
- mass density (3043.3 kPa): 1012.8 ± 1.2 kg/m3
- mass density (3058.9 kPa): 1012.8 ± 1.2 kg/m3
- mass density (3070.7 kPa): 1012.9 ± 1.2 kg/m3
- mass density (3083.2 kPa): 1012.8 ± 1.2 kg/m3
- mass density (3096 kPa): 1012.8 ± 1.2 kg/m3
- mass density (3108.7 kPa): 1012.8 ± 1.2 kg/m3
- mass density (3123.9 kPa): 1012.9 ± 1.2 kg/m3
- mass density (3136.6 kPa): 1012.8 ± 1.2 kg/m3
- mass density (3149.9 kPa): 1013 ± 1.2 kg/m3
- mass density (3165.5 kPa): 1012.9 ± 1.2 kg/m3
- mass density (3179.1 kPa): 1013 ± 1.2 kg/m3
- mass density (3192.6 kPa): 1012.9 ± 1.2 kg/m3
- mass density (3205.9 kPa): 1012.9 ± 1.2 kg/m3
- mass density (3222.1 kPa): 1012.9 ± 1.2 kg/m3
- mass density (3236.3 kPa): 1012.9 ± 1.2 kg/m3
- mass density (3249.8 kPa): 1012.8 ± 1.2 kg/m3
- mass density (3263.8 kPa): 1013 ± 1.2 kg/m3
- mass density (3280.5 kPa): 1013 ± 1.2 kg/m3
- mass density (3294.2 kPa): 1013 ± 1.2 kg/m3
- mass density (3310.8 kPa): 1013 ± 1.2 kg/m3
- mass density (3324.8 kPa): 1013 ± 1.2 kg/m3
- mass density (3339.2 kPa): 1013.1 ± 1.2 kg/m3
- mass density (3353.6 kPa): 1013 ± 1.2 kg/m3
- mass density (3368.2 kPa): 1013 ± 1.2 kg/m3
- mass density (3385.5 kPa): 1013 ± 1.2 kg/m3
- mass density (3400.2 kPa): 1013.1 ± 1.2 kg/m3
- mass density (3415.1 kPa): 1013.1 ± 1.2 kg/m3
- mass density (3433 kPa): 1013.1 ± 1.2 kg/m3
- mass density (3448.4 kPa): 1012.9 ± 1.2 kg/m3
- mass density (3463.3 kPa): 1013.1 ± 1.2 kg/m3
- mass density (3478.2 kPa): 1013.1 ± 1.2 kg/m3
- mass density (3496.8 kPa): 1013.2 ± 1.2 kg/m3
- mass density (3512 kPa): 1013 ± 1.2 kg/m3
- mass density (3527.8 kPa): 1013.1 ± 1.2 kg/m3
- mass density (3546.5 kPa): 1013.2 ± 1.2 kg/m3
- mass density (3562.5 kPa): 1013.1 ± 1.2 kg/m3
- mass density (3578.4 kPa): 1013.2 ± 1.2 kg/m3
- mass density (3594 kPa): 1013.2 ± 1.2 kg/m3
- mass density (3613.4 kPa): 1013.2 ± 1.2 kg/m3
- mass density (3630 kPa): 1013 ± 1.2 kg/m3
- mass density (3646.7 kPa): 1013.2 ± 1.2 kg/m3
- mass density (3663.3 kPa): 1013.1 ± 1.2 kg/m3
- mass density (3683.1 kPa): 1013.2 ± 1.2 kg/m3
- mass density (3699.3 kPa): 1013.2 ± 1.2 kg/m3
- mass density (3716.7 kPa): 1013.2 ± 1.2 kg/m3
- mass density (3734 kPa): 1013.3 ± 1.2 kg/m3
- mass density (3753.9 kPa): 1013.3 ± 1.2 kg/m3
- mass density (3771.2 kPa): 1013.3 ± 1.2 kg/m3
- mass density (3789.1 kPa): 1013.3 ± 1.2 kg/m3
- mass density (3806.2 kPa): 1013.3 ± 1.2 kg/m3
- mass density (3827.7 kPa): 1013.4 ± 1.2 kg/m3
- mass density (3845.4 kPa): 1013.4 ± 1.2 kg/m3
- mass density (3863.8 kPa): 1013.3 ± 1.2 kg/m3
- mass density (3881.9 kPa): 1013.3 ± 1.2 kg/m3
- mass density (3903.9 kPa): 1013.3 ± 1.2 kg/m3
- mass density (3927.5 kPa): 1013.3 ± 1.2 kg/m3
- mass density (4003.7 kPa): 1013.4 ± 1.2 kg/m3
- mass density (4122.2 kPa): 1013.5 ± 1.2 kg/m3
- mass density (4149.2 kPa): 1013.6 ± 1.2 kg/m3
- mass density (4165.7 kPa): 1013.5 ± 1.2 kg/m3
- mass density (4185.8 kPa): 1013.5 ± 1.2 kg/m3
- mass density (4202.9 kPa): 1013.6 ± 1.2 kg/m3
- mass density (4220.2 kPa): 1013.5 ± 1.2 kg/m3
- mass density (4238.1 kPa): 1013.5 ± 1.2 kg/m3
- mass density (4257.1 kPa): 1013.5 ± 1.2 kg/m3
- mass density (4275.3 kPa): 1013.5 ± 1.2 kg/m3
- mass density (4293.5 kPa): 1013.7 ± 1.2 kg/m3
- mass density (4311 kPa): 1013.6 ± 1.2 kg/m3
- mass density (4333.3 kPa): 1013.7 ± 1.2 kg/m3
- mass density (4464.7 kPa): 1013.8 ± 1.2 kg/m3
- mass density (4605.8 kPa): 1013.8 ± 1.2 kg/m3
- mass density (4684.8 kPa): 1013.8 ± 1.2 kg/m3
- mass density (4702.2 kPa): 1013.9 ± 1.2 kg/m3
- mass density (4719.7 kPa): 1014 ± 1.2 kg/m3
- mass density (4737.5 kPa): 1013.9 ± 1.2 kg/m3
- mass density (4776.3 kPa): 1013.9 ± 1.2 kg/m3
- mass density (4798.6 kPa): 1013.9 ± 1.2 kg/m3
- mass density (4817.1 kPa): 1014 ± 1.2 kg/m3
- mass density (4836 kPa): 1013.9 ± 1.2 kg/m3
- mass density (4855.9 kPa): 1014 ± 1.2 kg/m3
- mass density (4875 kPa): 1013.9 ± 1.2 kg/m3
- mass density (4897.8 kPa): 1014.2 ± 1.2 kg/m3
